The structures appear in SMILES notation. pKd: −log10 of the molar value.

Four compounds from US20240343747A1, “Heteroaryl compounds as inhibitors of TYK2, composition and application thereof” (Accro Bioscience (HK) Limited, priority 2021, published 2024) can be followed below.

In series [1] the target is TYK2 (Mus musculus (Mouse), UniProt Q9R117). The experiment in a line: Luciferase assay in L929 ISRE cells stimulated with IFN-α. Type of series: cell-based. As to conditions: IFN-α 100 ng/mL; for inhibition at 0.1 µM: 100 nM, read-out: Inhibitory activity % (100 nM); for inhibition at 1 µM: 1000 nM, read-out: Inhibitory activity % (1000 nM); for inhibition at 0.05 µM: 50 nM, read-out: Inhibitory activity % (50 nM); for inhibition at 0.2 µM: 200 nM, read-out: Inhibitory activity % (200 nM). On the procedure:
• 1. L929 ISRE cells (5000 cells/well) were seeded on 96-well plates and incubated overnight at room temperature; • 2. The cells were pretreated by adding different concentrations (10 nM, 50 nM, 100 nM, 200 nM or 1000 nM) of the test compounds for 2 hours; • 3. Added IFN-α (100 ng/mL) to stimulate cells for 6 hours; • 4. Removed the upper medium, add PBS (100 μL) and washed, then removed PBS; • 5. Added PLB lysis solution (50 μL) to each well, shook the well for 15 minutes; • 6. Transferred PLB lysis solution (30 μL) to a new 96-well whiteboard, added LAR II reagent (LAR II), then quickly read the […]; • 7. Added Stop & Glo reagent (30 μL), then read the 450 nm OD value using the plate washer. • 8. The final results in Table 3 were the OD value in step 6/OD value in step 7.

Series [2] can be described thus: Pharmacokinetic evaluation in beagle dog. Type of series: in vivo. Conditions: for F / AUC / Vd / clearance / half-life / Cmax / Tmax: beagle dog; for plasma exposure in beagle dog (in words): conclusion from Table 11; for AUC / Vd / clearance / half-life / Cmax / Tmax: plasma. As to the method:
The beagle dog pharmacokinetic characteristics of compounds were tested by standard protocols. The candidate compounds were made into clear solution for single intravenous injection (i.v.) and suspension for oral administration (p.o.). Intravenous and oral vehicle is 5% DMSO+10% Solutol+85% Saline. The experiment used 9 dog and 3 dog for intravenous at a dose of 1 mg/kg. Plasma samples were collected at 0 h (before dosing) and 0.083 h, 0.25 h, 0.5 h, 1 h, 2 h, 4 h, 8 h, 24 h after dosing. 3 dog were orally administrated at a dose of 5 mg/kg and 3 dog were orally administrated at a dose of 15 mg/kg. Plasma samples were collected at 0 h (before dosing) and 0.25 h, 0.5 h, 1 h, 2 h, 4 h, 6 h, 8 h, 24 h after dosing.
Blood samples were placed in tubes containing K2-EDTA and stored on ice until centrifuged. The blood samples were centrifuged at 6800 g for 6 minutes at 2-8° C. within 1 h after collected, and stored frozen at approximately −80° C.
The analytical results were confirmed using quality control samples for intra-assay variation. The accuracy of >66.7% of the quality control samples and 50% of all QC samples at each concentration level were between 80-120% of the known value(s).
Standard set of parameters including area under the curve (AUC(0-t) and AUC(0-∞)), elimination half-live (T1/2), maximum plasma concentration (Cmax), time to reach maximum plasma concentration (Tmax) were calculated using noncompartmental analysis modules in FDA certified pharmacokinetic program Phoenix WinNonlin 7.0 (Pharsight, USA) by the Study Director.

Series [3] deals with JAK1 JH1 (Homo sapiens (Human), UniProt P23458). The experiment in a line: Competitive binding assay (kinase-tagged phage, qPCR), JAK1 JH1. On the procedure: For most assays, kinase-tagged T7 phage strains were prepared in an E. coli host derived from the BL21 strain. E. coli were grown to log-phase and infected with T7 phage and incubated with shaking at 32° C. until lysis. The lysates were centrifuged and filtered to remove cell debris. The remaining kinases were produced in HEK-293 cells and subsequently tagged with DNA for qPCR detection. Streptavidin coated magnetic beads were treated with biotinylated small molecule ligands for 30 minutes at room temperature to generate affinity resins for kinase assays. The liganded beads were blocked with excess biotin and washed with blocking buffer (SeaBlock (Pierce), 1% BSA, 0.05% Tween 20, 1 mM DTT) to remove unbound ligand and to reduce non-specific binding. […] Test compounds were prepared as 111X stocks in 100% DMSO. Dissociation constants (Kds) were determined using an 11-point 3-fold compound dilution series with three DMSO control points. All compounds for Kd measurements are distributed by acoustic transfer (non-contact dispensing) in 100% DMSO. The compounds were then diluted directly into the assays such that the final concentration of DMSO was 0.9%. All reactions performed in polypropylene 384-well plate. Each was a final volume of 0.02 ml. The assay plates were incubated at room temperature with shaking for 1 hour and the affinity beads were washed with wash buffer (1×PBS, 0.05% Tween 20). The beads were then re-suspended in elution buffer (1×PBS, 0.05% Tween 20, 0.5 μM nonbiotinylated affinity ligand) and incubated at room temperature with shaking for 30 minutes. The kinase concentration in the eluates was measured by qPCR.
Chain of JAK1 JH1 (P23458 875-1153): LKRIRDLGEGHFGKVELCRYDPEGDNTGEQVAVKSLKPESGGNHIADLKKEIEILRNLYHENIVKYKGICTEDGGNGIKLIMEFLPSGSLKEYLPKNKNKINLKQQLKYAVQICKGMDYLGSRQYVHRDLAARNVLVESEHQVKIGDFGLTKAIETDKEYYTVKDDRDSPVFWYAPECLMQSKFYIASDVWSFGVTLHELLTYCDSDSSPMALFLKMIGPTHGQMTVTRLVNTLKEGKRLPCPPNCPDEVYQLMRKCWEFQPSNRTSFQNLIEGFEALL
An 11-point 3-fold serial dilution of each test compound was prepared in 100% DMSO at 100× final test concentration and subsequently diluted to 1× in the assay (final DMSO concentration=1%). Most Kds were determined using a compound top concentration=30,000 nM. If the initial Kd determined was <0.5 nM (the lowest concentration tested), the measurement was repeated with a serial dilution starting at a lower top concentration.
Binding constants (Kds) were calculated with a standard dose-response curve using the Hill equation: […]
The Hill Slope was set to −1.
Curves were fitted using a non-linear least square fit with the Levenberg-Marquardt algorithm.
(In general: In qPCR the cycle at which signal appears reflects the starting amount.)

Chain of TYK2 (Q9R117 whole entry): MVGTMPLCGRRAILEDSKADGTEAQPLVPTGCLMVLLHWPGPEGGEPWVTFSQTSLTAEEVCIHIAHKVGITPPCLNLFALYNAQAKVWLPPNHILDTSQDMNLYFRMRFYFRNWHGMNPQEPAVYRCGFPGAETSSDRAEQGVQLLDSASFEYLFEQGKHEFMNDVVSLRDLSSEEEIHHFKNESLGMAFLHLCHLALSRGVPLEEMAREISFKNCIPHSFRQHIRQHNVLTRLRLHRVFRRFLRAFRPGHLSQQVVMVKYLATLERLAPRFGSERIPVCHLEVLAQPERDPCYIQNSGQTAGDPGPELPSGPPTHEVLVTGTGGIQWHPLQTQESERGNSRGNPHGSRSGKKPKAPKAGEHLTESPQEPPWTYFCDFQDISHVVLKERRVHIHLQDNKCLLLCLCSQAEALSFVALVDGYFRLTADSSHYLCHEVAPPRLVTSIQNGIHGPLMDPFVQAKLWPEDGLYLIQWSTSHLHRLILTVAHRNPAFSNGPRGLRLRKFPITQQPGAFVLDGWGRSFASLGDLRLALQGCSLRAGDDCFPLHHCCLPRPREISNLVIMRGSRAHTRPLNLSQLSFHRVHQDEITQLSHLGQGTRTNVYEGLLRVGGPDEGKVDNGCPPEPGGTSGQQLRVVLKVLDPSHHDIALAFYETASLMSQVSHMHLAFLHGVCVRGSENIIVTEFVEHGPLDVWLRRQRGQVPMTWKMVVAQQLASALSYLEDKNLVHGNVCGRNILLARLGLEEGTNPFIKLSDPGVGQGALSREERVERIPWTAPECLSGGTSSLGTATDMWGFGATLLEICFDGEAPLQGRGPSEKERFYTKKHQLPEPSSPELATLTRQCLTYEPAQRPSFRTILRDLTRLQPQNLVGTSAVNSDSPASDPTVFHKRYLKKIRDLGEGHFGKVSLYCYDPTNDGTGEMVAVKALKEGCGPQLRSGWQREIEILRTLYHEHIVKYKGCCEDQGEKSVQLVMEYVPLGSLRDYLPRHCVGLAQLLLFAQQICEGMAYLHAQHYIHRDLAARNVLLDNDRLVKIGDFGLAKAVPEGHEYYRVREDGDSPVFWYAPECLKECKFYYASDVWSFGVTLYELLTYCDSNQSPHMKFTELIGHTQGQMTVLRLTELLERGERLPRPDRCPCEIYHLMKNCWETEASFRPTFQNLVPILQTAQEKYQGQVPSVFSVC

For `[2H]C([2H])([2H])n1nc(-c2cccc(Nc3cc(NC(=O)C4CC4)ncc3C(=O)CC)c2OC)cc1P(C)(C)=O` [Compound B22], in series [1], the inhibition at 0.1 µM was 43% and the inhibition at 1 µM amounted to 83%.
For orientation: AUC means concentration integrated over time. Read a high AUC as more exposure. Usually Vd stands for a proportionality between amount in the body and measured concentration, not a real space. Read a low Vd as little distribution into tissue. As usually defined, the clearance is the rate of elimination divided by the concentration. What is called half-life is how long it takes for the measured level to halve. Higher therefore signals slow loss. What is called Cmax is the highest concentration seen after dosing. One may read the Tmax as the time at which the peak concentration occurs. As a reminder, the pKd is the Kd on a negative log10 scale, so that one unit is a factor of ten. Read a low pKd as a large Kd. For the compound `CCC(=O)c1cnc(NC(=O)C2CC2)cc1Nc1cccc(-c2cc(P(=O)(C3CC3)C3CC3)n(C)n2)c1OC` [Compound B37, N-(4-((3-(5-(dicyclopropylphosphoryl)-1-methyl-1H-pyrazol-3-yl)-2-methoxyphenyl)amino)-5-propionylpyridin-2-yl)cyclopropanecarboxamide], in series [2] (p.o. 5 mg/kg), the F amounted to 46%. For the same compound, the F in series [2] (p.o. 15 mg/kg) was 21%. Further, in series [2], the “plasma exposure in beagle dog (in words)” value is “excellent plasma exposure”. In series [2] (iv, i.v. 1 mg/kg), this compound showed an AUC of 9240 ng·h/mL, a Vd of 0.33 L/kg, a clearance of 1.9 mL/min/kg and a half-life of 2.2 h. Further, in series [2] (po, p.o. 5 mg/kg), the AUC was found to be 21300 ng·h/mL, the Cmax turned out to be 3980 ng/mL and the Tmax turned out to be 0.83 h. Besides, in series [2] (po, p.o. 15 mg/kg), the exposure (AUC) amounted to 28600 ng·h/mL, the concentration peaked (Cmax) at 4870 ng/mL and the Tmax was 0.67 h. Besides, in series [1], the inhibition at 0.05 µM came to 89%, the inhibition at 0.2 µM is 95% and the inhibition at 1 µM was determined as 97%. The pKd in series [3] is < 4.52.
On to `CCC(=O)c1cnc(NC(=O)C2CC2)cc1Nc1cccc(-c2cc(P(C)(C)=O)n(C)n2)c1OC` [Compound B2, N-(4-((3-(5-(dimethylphosphoryl)-1-methyl-1H-pyrazol-3-yl)-2-methoxyphenyl)amino)-5-propionylpyridin-2-yl)cyclopropanecarboxamide], for which, in series [1] (10 nM, read-out: Inhibitory activity % (10 nM)), the inhibition at 0.01 µM was 45%. Further, in series [1], the inhibition at 0.1 µM worked out at 58% and the inhibition at 1 µM came out at 94%. Also, the pKd in series [3] is < 4.52.
`[2H]C([2H])([2H])NC(=O)c1nnc(NC(=O)C2CC2)cc1Nc1cccc(-c2cc(P(=O)(C3CC3)C3CC3)n(C)n2)c1OC` [Compound B41, 6-(cyclopropanecarboxamido)-4-((3-(5-(dicyclopropylphosphoryl)-1-methyl-1H-pyrazol-3-yl)-2-methoxyphenyl)amino)-N-(methyl-d3)pyridazine-3-carboxamide] yielded a F in series [2] (p.o. 5 mg/kg) of 79%. The compound further showed a F in series [2] (p.o. 15 mg/kg) of 120%. The “plasma exposure in beagle dog (in words)” value in series [2] is “excellent plasma exposure”. For the same compound, in series [2] (iv, i.v. 1 mg/kg), the AUC was 4900 ng·h/mL, the Vd was determined as 0.56 L/kg, the clearance was determined as 4 mL/min/kg and the half-life was 2.1 h. Also, in series [2] (po, p.o. 5 mg/kg), the AUC amounted to 19400 ng·h/mL, the Cmax amounted to 3100 ng/mL and the Tmax was 1 h. In addition, in series [2] (po, p.o. 15 mg/kg), the AUC worked out at 88000 ng·h/mL, the highest level (Cmax) was 9870 ng/mL and the time to peak (Tmax) was 1.7 h. In series [1], the inhibition at 0.05 µM is 86%, the inhibition at 0.2 µM was 92% and the inhibition at 1 µM amounted to 97%.
